Source: patent US9340590B2 (priority 2011, dated 2016)
pIC50: −log10 of the molar value. Read-outs that look alike come from different tables or passages of the source. Positions of bridges follow the written chain, without caps; N, C: chain ends. Residues, ends and D or L forms follow the SMILES beside them.

Assays:
Test in all cases: cell-based
hNav1.5 [1] = molecular target: T1, hNav1.5 (Homo sapiens, UniProt Q14524)
hNav1.3 = hNav1.3 (Homo sapiens, UniProt Q9NY46); conditions: IonWorks Quattro; clamped to −110 mV, depolarized to −10 mV, 5 min after compound; n=2; read-out: IWQ Use Nav1.3
hNav1.7 [2] = molecular target: T2, hNav1.7 (Homo sapiens, UniProt Q15858); conditions: Nav1.7 Use IC50
hNav1.5 [3] = molecular target: T1, hNav1.5; remark: listed apart in the source
hNav1.7 [4] = molecular target: T2, hNav1.7; assay type: cell-based; conditions: read-out: IWQ Use Nav1.7
[5] = IonWorks Quattro, clamped to −110 mV, depolarized to −10 mV, 5 min after compound, n=2, read-out: IWQ Use Nav1.5

T1 sequence (Q14524 whole entry, looked up): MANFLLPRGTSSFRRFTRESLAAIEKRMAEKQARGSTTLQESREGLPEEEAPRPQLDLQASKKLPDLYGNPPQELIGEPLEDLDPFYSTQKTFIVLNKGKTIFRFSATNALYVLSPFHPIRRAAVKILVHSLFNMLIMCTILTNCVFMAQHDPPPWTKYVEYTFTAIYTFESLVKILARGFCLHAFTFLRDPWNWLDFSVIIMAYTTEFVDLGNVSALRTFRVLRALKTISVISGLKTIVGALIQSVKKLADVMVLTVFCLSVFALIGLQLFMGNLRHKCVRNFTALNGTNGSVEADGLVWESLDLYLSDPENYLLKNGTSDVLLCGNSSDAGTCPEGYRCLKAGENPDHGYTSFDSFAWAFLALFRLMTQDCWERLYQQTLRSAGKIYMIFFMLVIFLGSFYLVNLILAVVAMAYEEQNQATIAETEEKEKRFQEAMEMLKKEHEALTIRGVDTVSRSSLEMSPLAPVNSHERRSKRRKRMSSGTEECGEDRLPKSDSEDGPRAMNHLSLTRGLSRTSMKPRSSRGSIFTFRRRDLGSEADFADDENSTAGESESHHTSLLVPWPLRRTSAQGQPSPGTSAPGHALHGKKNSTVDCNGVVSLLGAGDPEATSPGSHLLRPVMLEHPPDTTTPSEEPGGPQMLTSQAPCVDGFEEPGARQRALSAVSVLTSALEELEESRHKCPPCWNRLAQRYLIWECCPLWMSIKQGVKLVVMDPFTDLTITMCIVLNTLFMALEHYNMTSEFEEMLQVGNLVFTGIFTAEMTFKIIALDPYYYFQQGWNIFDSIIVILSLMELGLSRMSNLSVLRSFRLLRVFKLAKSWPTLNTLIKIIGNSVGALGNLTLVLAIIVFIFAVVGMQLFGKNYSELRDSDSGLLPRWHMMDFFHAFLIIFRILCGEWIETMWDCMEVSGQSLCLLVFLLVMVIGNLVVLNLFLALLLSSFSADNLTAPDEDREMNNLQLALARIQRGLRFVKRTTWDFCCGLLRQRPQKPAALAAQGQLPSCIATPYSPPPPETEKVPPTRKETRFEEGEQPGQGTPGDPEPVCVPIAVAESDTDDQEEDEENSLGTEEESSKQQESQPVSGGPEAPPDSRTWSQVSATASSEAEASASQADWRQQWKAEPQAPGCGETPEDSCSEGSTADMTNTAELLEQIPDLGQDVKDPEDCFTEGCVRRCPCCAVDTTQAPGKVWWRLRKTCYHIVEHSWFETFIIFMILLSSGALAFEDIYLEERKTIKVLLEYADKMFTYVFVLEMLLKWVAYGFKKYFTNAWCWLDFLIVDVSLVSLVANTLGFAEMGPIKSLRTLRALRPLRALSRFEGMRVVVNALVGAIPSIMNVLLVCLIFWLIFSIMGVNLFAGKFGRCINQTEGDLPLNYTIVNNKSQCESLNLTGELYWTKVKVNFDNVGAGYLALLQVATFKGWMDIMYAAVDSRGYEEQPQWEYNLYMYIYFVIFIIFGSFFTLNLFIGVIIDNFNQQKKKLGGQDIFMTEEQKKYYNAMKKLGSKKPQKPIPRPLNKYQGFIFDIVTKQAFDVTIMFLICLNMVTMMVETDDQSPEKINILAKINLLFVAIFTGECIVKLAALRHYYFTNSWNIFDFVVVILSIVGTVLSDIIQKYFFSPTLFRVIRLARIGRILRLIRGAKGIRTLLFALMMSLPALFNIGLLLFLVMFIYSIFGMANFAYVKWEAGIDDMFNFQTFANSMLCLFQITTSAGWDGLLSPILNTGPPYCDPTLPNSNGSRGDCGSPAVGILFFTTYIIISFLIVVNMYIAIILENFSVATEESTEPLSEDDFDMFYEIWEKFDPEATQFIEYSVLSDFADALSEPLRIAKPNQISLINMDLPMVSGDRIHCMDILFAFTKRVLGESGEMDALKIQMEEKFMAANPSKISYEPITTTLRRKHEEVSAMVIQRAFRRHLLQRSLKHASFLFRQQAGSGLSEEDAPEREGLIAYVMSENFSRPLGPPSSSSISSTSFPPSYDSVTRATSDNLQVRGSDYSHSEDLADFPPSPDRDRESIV
T2 sequence (Q15858 whole entry, looked up): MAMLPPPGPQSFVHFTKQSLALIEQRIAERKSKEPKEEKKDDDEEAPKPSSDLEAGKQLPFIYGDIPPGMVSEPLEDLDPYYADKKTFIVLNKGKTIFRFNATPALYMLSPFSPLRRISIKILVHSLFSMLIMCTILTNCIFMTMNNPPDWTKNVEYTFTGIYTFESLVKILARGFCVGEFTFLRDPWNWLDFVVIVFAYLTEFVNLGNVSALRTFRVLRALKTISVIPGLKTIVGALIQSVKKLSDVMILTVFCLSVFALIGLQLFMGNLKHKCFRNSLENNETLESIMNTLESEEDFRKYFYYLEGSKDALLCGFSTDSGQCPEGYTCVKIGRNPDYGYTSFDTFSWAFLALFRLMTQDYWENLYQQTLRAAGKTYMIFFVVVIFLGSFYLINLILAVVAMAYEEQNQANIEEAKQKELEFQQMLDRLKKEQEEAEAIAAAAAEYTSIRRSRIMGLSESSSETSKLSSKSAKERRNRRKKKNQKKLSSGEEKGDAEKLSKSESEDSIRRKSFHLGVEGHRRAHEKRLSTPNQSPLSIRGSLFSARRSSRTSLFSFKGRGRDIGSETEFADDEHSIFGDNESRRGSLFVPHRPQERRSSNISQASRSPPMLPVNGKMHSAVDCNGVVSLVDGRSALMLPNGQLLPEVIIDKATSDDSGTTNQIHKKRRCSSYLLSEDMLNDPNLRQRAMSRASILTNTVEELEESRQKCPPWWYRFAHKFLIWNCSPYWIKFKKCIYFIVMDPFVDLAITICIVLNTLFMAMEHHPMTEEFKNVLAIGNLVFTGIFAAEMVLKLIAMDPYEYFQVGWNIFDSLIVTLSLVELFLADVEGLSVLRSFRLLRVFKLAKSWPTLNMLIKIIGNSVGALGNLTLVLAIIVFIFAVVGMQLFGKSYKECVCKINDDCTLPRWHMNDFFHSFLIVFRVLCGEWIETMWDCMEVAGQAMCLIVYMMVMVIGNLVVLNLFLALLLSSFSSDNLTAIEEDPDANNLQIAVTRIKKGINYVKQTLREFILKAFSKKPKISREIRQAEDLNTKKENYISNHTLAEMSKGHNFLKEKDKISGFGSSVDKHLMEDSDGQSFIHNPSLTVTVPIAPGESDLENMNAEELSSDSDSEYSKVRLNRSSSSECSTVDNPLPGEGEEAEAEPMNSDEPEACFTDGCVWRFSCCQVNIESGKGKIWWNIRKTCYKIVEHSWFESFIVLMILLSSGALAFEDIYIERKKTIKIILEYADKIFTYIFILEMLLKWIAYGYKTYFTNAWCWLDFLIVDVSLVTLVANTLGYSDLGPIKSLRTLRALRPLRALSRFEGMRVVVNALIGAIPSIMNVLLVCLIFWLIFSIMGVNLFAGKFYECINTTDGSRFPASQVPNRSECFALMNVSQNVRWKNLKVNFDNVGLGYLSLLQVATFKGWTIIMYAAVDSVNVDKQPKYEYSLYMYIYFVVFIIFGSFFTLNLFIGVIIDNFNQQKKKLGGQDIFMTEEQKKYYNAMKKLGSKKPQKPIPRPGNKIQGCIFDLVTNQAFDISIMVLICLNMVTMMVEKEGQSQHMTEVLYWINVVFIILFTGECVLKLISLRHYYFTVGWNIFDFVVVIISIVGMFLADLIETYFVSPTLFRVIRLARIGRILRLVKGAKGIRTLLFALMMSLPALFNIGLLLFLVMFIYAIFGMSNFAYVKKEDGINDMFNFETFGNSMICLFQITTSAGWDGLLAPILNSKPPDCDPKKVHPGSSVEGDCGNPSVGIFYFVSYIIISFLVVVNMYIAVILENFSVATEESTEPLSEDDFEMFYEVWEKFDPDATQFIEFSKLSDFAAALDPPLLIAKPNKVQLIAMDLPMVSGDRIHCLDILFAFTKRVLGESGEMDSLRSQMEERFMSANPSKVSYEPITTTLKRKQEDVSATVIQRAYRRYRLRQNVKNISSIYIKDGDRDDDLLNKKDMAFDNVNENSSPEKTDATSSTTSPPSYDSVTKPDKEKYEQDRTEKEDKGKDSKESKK

CC[C@H](C)[C@@H]1NC(=O)[C@@H]2CSSC[C@@H]3NC(=O)[C@H](C(C)C)NC(=O)[C@H](CC(C)C)NC(=O)[C@H](CC(N)=O)NC(=O)[C@@H]4CCCN4C(=O)[C@H](CCCNC(=N)N)NC(=O)[C@H](CSSC[C@H](NC(=O)[C@@H](N)CC(=O)O)C(=O)N[C@@H](CCC(=O)O)C(=O)NCC(=O)N[C@@H](Cc4ccccc4)C(=O)N[C@@H](CCSC)C(=O)N[C@@H](CCCNC(=N)N)C(=O)N[C@@H](CCCCN)C(=O)N2)NC(=O)[C@H](CSSC[C@@H](C(=O)N[C@@H](CCCCN)C(=O)N[C@@H](Cc2ccc(O)cc2)C(=O)N[C@H](C(=O)N[C@@H](Cc2ccccc2)C(N)=O)C(C)C)NC(=O)[C@H](Cc2c[nH]c4ccccc24)NC(=O)[C@H](CCCCN)NC(=O)[C@H](Cc2cnc[nH]2)NC(=O)[C@H]([C@@H](C)O)NC(=O)[C@H](CCCNC(=N)N)NC(=O)[C@H](CO)NC3=O)NC(=O)[C@H](CCCCN)NC(=O)[C@H](CC(=O)O)NC(=O)[C@H](CC(N)=O)NC(=O)[C@H](CC(=O)O)NC(=O)[C@@H]2CCCN2C1=O [SEQ ID NO: 19] (H-DCEGFMRKCIPDNDKCCRPNLVCSRTHKWCKYVF-NH2; disulfide 2-17, 9-23, 16-30)
pIC50 (hNav1.5 [1]; [5]): 4.98 | pIC50 (hNav1.3): 6.08 | pIC50 (hNav1.7 [2]): 7.39 | pIC50 (hNav1.5 [3]): < 5.00

CC[C@H](C)[C@@H]1NC(=O)[C@@H]2CSSC[C@@H]3NC(=O)[C@H](C(C)C)NC(=O)[C@H](CC(C)C)NC(=O)[C@H](CC(N)=O)NC(=O)[C@@H]4CCCN4C(=O)[C@H](CCCNC(=N)N)NC(=O)[C@H](CSSC[C@H](NC(=O)[C@@H](N)CC(=O)O)C(=O)N[C@@H](C)C(=O)NCC(=O)N[C@@H](Cc4ccccc4)C(=O)N[C@@H](CCSC)C(=O)N[C@@H](CCCNC(=N)N)C(=O)N[C@@H](CCCCN)C(=O)N2)NC(=O)[C@H](CSSC[C@@H](C(=O)N[C@@H](CCCCN)C(=O)N[C@@H](Cc2ccc(O)cc2)C(=O)N[C@H](C(=O)N[C@@H](Cc2ccccc2)C(N)=O)C(C)C)NC(=O)[C@H](Cc2c[nH]c4ccccc24)NC(=O)[C@H](CCCCN)NC(=O)[C@H](Cc2cnc[nH]2)NC(=O)[C@H]([C@@H](C)O)NC(=O)[C@H](CCCNC(=N)N)NC(=O)[C@H](CO)NC3=O)NC(=O)[C@H](CCCCN)NC(=O)[C@H](CC(=O)O)NC(=O)[C@H](CC(N)=O)NC(=O)[C@H](CC(=O)O)NC(=O)[C@@H]2CCCN2C1=O [SEQ ID NO: 21] (H-DCAGFMRKCIPDNDKCCRPNLVCSRTHKWCKYVF-NH2; disulfide 2-17, 9-23, 16-30)
pIC50 (hNav1.7 [4]; IonWorks Quattro, clamped to −110 mV, depolarized to −10 mV, 5 min after compound, n=2): 6.29 | pIC50 (hNav1.5 [1]; IWQ Use Nav1.5): 4.72 | pIC50 (hNav1.3): 7.00 | pIC50 (hNav1.7 [2]): 7.92 | pIC50 (hNav1.5 [3]): < 5.00

CC[C@H](C)[C@@H]1NC(=O)[C@@H]2CSSC[C@@H]3NC(=O)[C@H](C(C)C)NC(=O)[C@H](CC(C)C)NC(=O)[C@H](CC(N)=O)NC(=O)[C@@H]4CCCN4C(=O)[C@H](CCCNC(=N)N)NC(=O)[C@H](CSSC[C@H](NC(=O)[C@H](CC(=O)O)NC(=O)[C@H](C)N)C(=O)N[C@@H](CC(C)C)C(=O)NCC(=O)N[C@@H](Cc4ccccc4)C(=O)N[C@@H](CCSC)C(=O)N[C@@H](CCCNC(=N)N)C(=O)N[C@@H](CCCCN)C(=O)N2)NC(=O)[C@H](CSSC[C@@H](C(=O)N[C@@H](CCCCN)C(=O)N[C@@H](Cc2ccc(O)cc2)C(=O)N[C@H](C(=O)N[C@@H](Cc2ccccc2)C(N)=O)C(C)C)NC(=O)[C@H](Cc2c[nH]c4ccccc24)NC(=O)[C@H](CCCCN)NC(=O)[C@H](Cc2c[nH]cn2)NC(=O)[C@H]([C@@H](C)O)NC(=O)[C@H](CCCNC(=N)N)NC(=O)[C@H](CO)NC3=O)NC(=O)[C@H](CCCCN)NC(=O)[C@H](CC(=O)O)NC(=O)[C@H](CC(N)=O)NC(=O)[C@H](CC(=O)O)NC(=O)[C@@H]2CCCN2C1=O [SEQ ID NO: 100]
pIC50 (hNav1.7 [4]): 6.43 | pIC50 (hNav1.5 [1]; [5]): 4.71 | pIC50 (hNav1.3): 6.49 | pIC50 (hNav1.7 [2]): 7.92 | pIC50 (hNav1.5 [3]): 5.00

CC[C@H](C)[C@@H]1NC(=O)[C@@H]2CSSC[C@@H]3NC(=O)[C@H](C(C)C)NC(=O)[C@H](CC(C)C)NC(=O)[C@H](CC(N)=O)NC(=O)[C@@H]4CCCN4C(=O)[C@H](CCCNC(=N)N)NC(=O)[C@H](CSSC[C@H](NC(=O)[C@@H](N)CC(=O)O)C(=O)N[C@@H](CC(C)C)C(=O)NCC(=O)N[C@@H](C(C)C)C(=O)N[C@@H](CCSC)C(=O)N[C@@H](CCCNC(=N)N)C(=O)N[C@@H](CCCCN)C(=O)N2)NC(=O)[C@H](CSSC[C@@H](C(=O)N[C@@H](CCCCN)C(=O)N[C@@H](Cc2ccc(O)cc2)C(=O)N[C@H](C(=O)N[C@@H](Cc2ccccc2)C(N)=O)C(C)C)NC(=O)[C@H](Cc2c[nH]c4ccccc24)NC(=O)[C@H](CCCCN)NC(=O)[C@H](Cc2c[nH]cn2)NC(=O)[C@H]([C@@H](C)O)NC(=O)[C@H](CCCNC(=N)N)NC(=O)[C@H](CO)NC3=O)NC(=O)[C@H](CCCCN)NC(=O)[C@H](CC(=O)O)NC(=O)[C@H](CC(N)=O)NC(=O)[C@H](CCC(=O)O)NC(=O)[C@@H]2CCCN2C1=O [[Val5;Glu12]GpTx-1(1-34)] (H-DCLGVMRKCIPENDKCCRPNLVCSRTHKWCKYVF-NH2; disulfide 2-17, 9-23, 16-30)
pIC50 (hNav1.7 [2]): 7.13 | pIC50 (hNav1.5 [3]): < 5.00

CC[C@H](C)[C@@H]1NC(=O)[C@@H]2CSSC[C@@H]3NC(=O)[C@H](C(C)C)NC(=O)[C@H](CC(C)C)NC(=O)[C@H](CC(N)=O)NC(=O)[C@@H]4CCCN4C(=O)[C@H](CCCNC(=N)N)NC(=O)[C@H](CSSC[C@H](NC(=O)[C@@H](N)CC(=O)O)C(=O)N[C@@H](CC(C)C)C(=O)NCC(=O)N[C@@H](C(C)C)C(=O)N[C@@H](CCSC)C(=O)N[C@@H](CCCNC(=N)N)C(=O)N[C@@H](CCCCN)C(=O)N2)NC(=O)[C@H](CSSC[C@@H](C(=O)N[C@@H](CCCCN)C(=O)N[C@@H](Cc2ccc(O)cc2)C(=O)N[C@H](C(=O)N[C@@H](Cc2ccccc2)C(N)=O)C(C)C)NC(=O)[C@H](Cc2c[nH]c4ccccc24)NC(=O)[C@H](CCC(=O)O)NC(=O)[C@H](Cc2c[nH]cn2)NC(=O)[C@H]([C@@H](C)O)NC(=O)[C@H](CCCNC(=N)N)NC(=O)[C@H](CO)NC3=O)NC(=O)[C@H](CCCCN)NC(=O)[C@H](CC(=O)O)NC(=O)[C@H](CC(N)=O)NC(=O)[C@H](CC(=O)O)NC(=O)[C@@H]2CCCN2C1=O [[Val5;Glu28]GpTx-1(1-34)] (H-DCLGVMRKCIPDNDKCCRPNLVCSRTHEWCKYVF-NH2; disulfide 2-17, 9-23, 16-30)
pIC50 (hNav1.7 [2]): 7.54 | pIC50 (hNav1.5 [3]): < 5.00

CC[C@H](C)[C@@H]1NC(=O)[C@@H]2CSSC[C@@H]3NC(=O)[C@H](C(C)C)NC(=O)[C@H](CC(C)C)NC(=O)[C@H](CC(N)=O)NC(=O)[C@@H]4CCCN4C(=O)[C@H](CCCNC(=N)N)NC(=O)[C@H](CSSC[C@H](NC(=O)[C@@H](N)CC(=O)O)C(=O)N[C@@H](CC(C)C)C(=O)NCC(=O)N[C@@H](C(C)C)C(=O)N[C@@H](CC(C)C)C(=O)N[C@@H](CCCNC(=N)N)C(=O)N[C@@H](CCCCN)C(=O)N2)NC(=O)[C@H](CSSC[C@@H](C(=O)N[C@@H](CCCCN)C(=O)N[C@@H](Cc2ccc(O)cc2)C(=O)N[C@H](C(=O)N[C@@H](Cc2ccccc2)C(N)=O)C(C)C)NC(=O)[C@H](Cc2c[nH]c4ccccc24)NC(=O)[C@H](CCC(=O)O)NC(=O)[C@H](Cc2c[nH]cn2)NC(=O)[C@H]([C@@H](C)O)NC(=O)[C@H](CCCNC(=N)N)NC(=O)[C@H](CO)NC3=O)NC(=O)[C@H](CCCCN)NC(=O)[C@H](CC(=O)O)NC(=O)[C@H](CC(N)=O)NC(=O)[C@H](CC(=O)O)NC(=O)[C@@H]2CCCN2C1=O [[Val5;Leu6;Glu28]GpTx-1(1-34)] (H-DCLGVLRKCIPDNDKCCRPNLVCSRTHEWCKYVF-NH2; disulfide 2-17, 9-23, 16-30)
pIC50 (hNav1.7 [2]): 7.07 | pIC50 (hNav1.5 [3]): < 5.00

CC[C@H](C)[C@@H]1NC(=O)[C@@H]2CSSC[C@@H]3NC(=O)[C@H](C(C)C)NC(=O)[C@H](CC(C)C)NC(=O)[C@H](CC(N)=O)NC(=O)[C@@H]4CCCN4C(=O)[C@H](CCCNC(=N)N)NC(=O)[C@H](CSSC[C@H](NC(=O)[C@@H](N)CC(=O)O)C(=O)N[C@@H](CC(C)C)C(=O)NCC(=O)N[C@@H](C(C)C)C(=O)N[C@@H](CC(C)C)C(=O)N[C@@H](CCCNC(=N)N)C(=O)N[C@@H](CCCCN)C(=O)N2)NC(=O)[C@H](CSSC[C@@H](C(=O)N[C@@H](CCCCN)C(=O)N[C@@H](Cc2ccc(O)cc2)C(=O)N[C@H](C(=O)N[C@@H](Cc2ccccc2)C(N)=O)C(C)C)NC(=O)[C@H](Cc2c[nH]c4ccccc24)NC(=O)[C@H](CCCCN)NC(=O)[C@H](Cc2c[nH]cn2)NC(=O)[C@H]([C@@H](C)O)NC(=O)[C@H](CCCNC(=N)N)NC(=O)[C@H](CO)NC3=O)NC(=O)[C@H](CCCCN)NC(=O)[C@H](CC(=O)O)NC(=O)[C@H](CC(N)=O)NC(=O)[C@H](CC(=O)O)NC(=O)[C@@H]2CCCN2C1=O [[Val5;Leu6]GpTx-1(1-34)] (H-DCLGVLRKCIPDNDKCCRPNLVCSRTHKWCKYVF-NH2; disulfide 2-17, 9-23, 16-30)
pIC50 (hNav1.7 [2]): 6.70 | pIC50 (hNav1.5 [3]): < 5.00
